Here are results for 35 molecules from ChEMBL document CHEMBL3046569 (Med Chem Res, 2011).

Data set [1] deals with Human immunodeficiency virus 1. The experiment in a line: Antiviral activity against Human immunodeficiency virus 1 infected human H9 cells assessed as inhibition of viral replication. It is filed as functional, organism-based. The following applies: Human immunodeficiency virus 1, H9; read-out: pEC50 (converted).
The nature of data set [2]: Therapeutic index, ratio of IC50 for human H9 cells to EC50 for HIV1. It is filed as cell-based. The following applies: for pTI: h9.

As to `C=C(C)[C@@H]1CC[C@]2(COC(=O)CC3(CC(=O)O)CCCC3)CC[C@]3(C)[C@H](CC[C@@H]4[C@@]5(C)CC[C@H](O)C(C)(C)[C@@H]5CC[C@]43C)[C@@H]12`, in data set [1], the EC50 was 2100 nM. For the same molecule, the pTI in data set [2] is given as -0.785.
The matching figures for `CC(C)[C@@H]1CC[C@]2(COC(=O)CCCC(=O)O)CC[C@]3(C)[C@H](CC[C@@H]4[C@@]5(C)CC[C@H](OC(=O)CCCC(=O)O)C(C)(C)[C@@H]5CC[C@]43C)[C@@H]12`: 1600 nM and -1.23.
Consider `C=C(C)[C@@H]1CC[C@]2(COC(=O)CCC(=O)O)CC[C@]3(C)[C@H](CC[C@@H]4[C@@]5(C)CC[C@H](OC(=O)CCC(=O)O)C(C)(C)[C@@H]5CC[C@]43C)[C@@H]12`, for which, in data set [1], the EC50 is 3800 nM. In data set [2], the pTI is listed as -0.969.
For `CC(CC(=O)O)CC(=O)OC[C@]12CC[C@@H](C(C)C)[C@@H]1[C@H]1CC[C@@H]3[C@@]4(C)CC[C@H](OC(=O)CC(C)CC(=O)O)C(C)(C)[C@@H]4CC[C@@]3(C)[C@]1(C)CC2` (stereo partly drawn) the same measures were 59 nM and -2.512.
The matching figures for `C=C(C)[C@@H]1CC[C@]2(COC(=O)CCCC(=O)O)CC[C@]3(C)[C@H](CC[C@@H]4[C@@]5(C)CC[C@H](OC(=O)CCCC(=O)O)C(C)(C)[C@@H]5CC[C@]43C)[C@@H]12`: 3800 nM and -0.833.
With `C=C(COC(=O)CC(C)(C)CC(=O)O)[C@@H]1CC[C@]2(COC(=O)CC(C)(C)CC(=O)O)CC[C@]3(C)[C@H](CC[C@@H]4[C@@]5(C)CC[C@H](OC(=O)CC(C)(C)CC(=O)O)C(C)(C)[C@@H]5CC[C@]43C)[C@@H]12`, the EC50 in data set [1] was 45 nM. In addition, the pTI in data set [2] is reported as -2.59.
For `C=C(C)[C@@H]1CC[C@]2(CN)CC[C@]3(C)[C@H](CC[C@@H]4[C@@]5(C)CC[C@H](N)C(C)(C)[C@@H]5CC[C@]43C)[C@@H]12`, the EC50 in data set [1] is 1070 nM. Moreover, the pTI in data set [2] was -0.708.
For `C=C(C)[C@@H]1CC[C@]2(COC(=O)CC(C)CC(=O)O)CC[C@]3(C)[C@H](CC[C@@H]4[C@@]5(C)CC[C@H](OC(=O)CC(C)CC(=O)O)C(C)(C)[C@@H]5CC[C@]43C)[C@@H]12` (stereo partly drawn) the same measures were 3.9 nM and -3.725.
Turning to `C=C(C)[C@@H]1CC[C@]2(COC(=O)CC(C)(C)CC(=O)O)CC[C@]3(C)[C@H](CC[C@@H]4[C@@]5(C)CCC(=O)C(C)(C)[C@@H]5CC[C@]43C)[C@@H]12`, the EC50 in data set [1] was 10000 nM. For the same molecule, in data set [2], the pTI is given as -0.462.
For `CC(C)[C@@H]1CC[C@]2(COC(=O)CC(C)(C)CC(=O)O)CC[C@]3(C)[C@H](CC[C@@H]4[C@@]5(C)CC[C@H](OC(=O)CC(C)(C)CC(=O)O)C(C)(C)[C@@H]5CC[C@]43C)[C@@H]12` the same measures were 4.7 nM and -3.353.
The matching figures for `C=C(COC(=O)CC1(CC(=O)O)CCCC1)[C@@H]1CC[C@]2(COC(=O)CC3(CC(=O)O)CCCC3)CC[C@]3(C)[C@H](CC[C@@H]4[C@@]5(C)CC[C@H](OC(=O)CC6(CC(=O)O)CCCC6)C(C)(C)[C@@H]5CC[C@]43C)[C@@H]12`: 5.4 nM and -3.076.
On to `C=C(C)[C@@H]1CC[C@]2(NOC(=O)CCC(C)(C)CC(=O)O)CC[C@]3(C)[C@H](CC[C@@H]4[C@@]5(C)CC/C(=N\OC(=O)CCC(C)(C)CC(=O)O)C(C)(C)[C@@H]5CC[C@]43C)[C@@H]12`, for which, in data set [1], the EC50 is 4570 nM. The pTI in data set [2] is listed as -0.532.
For `CC(C)[C@@H]1CC[C@]2(C(=O)OCc3ccccc3)CC[C@]3(C)[C@H](CC[C@@H]4[C@@]5(C)CC[C@H](O)C(C)(C)[C@@H]5CC[C@]43C)[C@@H]12`, the EC50 in data set [1] is 100000 nM. In addition, the pTI in data set [2] is on record as -0.255.
As to `CC(C)[C@@H]1CC[C@]2(C(=O)OC(=O)N3CCOCC3)CC[C@]3(C)[C@H](CC[C@@H]4[C@@]5(C)CC[C@H](O)C(C)(C)[C@@H]5CC[C@]43C)[C@@H]12`, the EC50 in data set [1] was 26000 nM. Moreover, the pTI in data set [2] is -0.114.
For `CC(C)[C@@H]1CC[C@]2(C(=O)O)CC[C@]3(C)[C@H](CC[C@@H]4[C@@]5(C)CC[C@H](OC(=O)CCCC(=O)O)C(C)(C)[C@@H]5CC[C@]43C)[C@@H]12` the same measures were 1800 nM and -0.875.
For `CC(C)[C@@H]1CC[C@]2(C(=O)O)CC[C@]3(C)[C@H](CC[C@@H]4[C@@]5(C)CC[C@H](OC(=O)C67CCC(C)(C(=O)O6)C7(C)C)C(C)(C)[C@@H]5CC[C@]43C)[C@@H]12` (stereo partly drawn) the same measures were 500 nM and -0.301.
For `CC(C)CC(=O)O[C@H]1CC[C@]2(C)[C@H]3CC[C@@H]4[C@H]5[C@H](C(C)C)CC[C@]5(C(=O)O)CC[C@@]4(C)[C@]3(C)CC[C@H]2C1(C)C` the same measures were 1500 nM and -1.748.
Consider `CC(C)[C@@H]1CC[C@]2(C(=O)OCc3ccccc3)CC[C@]3(C)[C@H](CC[C@@H]4[C@@]5(C)CC[C@H](OC(=O)CC(C)(C)C(=O)O)C(C)(C)[C@@H]5CC[C@]43C)[C@@H]12`, for which, in data set [1], the EC50 was 230 nM. Moreover, the pTI in data set [2] is -1.748.
Regarding `CC(C)[C@@H]1CC[C@]2(C(=O)OCc3ccccc3)CC[C@]3(C)[C@H](CC[C@@H]4[C@@]5(C)CC[C@H](OC(=O)CCCC(=O)O)C(C)(C)[C@@H]5CC[C@]43C)[C@@H]12`, the EC50 in data set [1] was 500 nM. Further, the pTI in data set [2] is recorded as -1.279.
On to `CC(C)[C@@H]1CC[C@]2(C(=O)OC(=O)OCN(C)C)CC[C@]3(C)[C@H](CC[C@@H]4[C@@]5(C)CC[C@H](O)C(C)(C)[C@@H]5CC[C@]43C)[C@@H]12`, for which the EC50 in data set [1] is 6590 nM. Further, the pTI in data set [2] is 0.
On to `CC(C)[C@@H]1CC[C@]2(C(=O)OC(=O)OCN(C)C)CC[C@]3(C)[C@H](CC[C@@H]4[C@@]5(C)CCC(=O)C(C)(C)[C@@H]5CC[C@]43C)[C@@H]12`, for which the EC50 in data set [1] is 3800 nM. Besides, the pTI in data set [2] is on record as -0.544.
For `C=C(C)[C@@H]1CC[C@]2(COC(=O)CC3(CC(=O)O)CCCC3)CC[C@]3(C)[C@H](CC[C@@H]4[C@@]5(C)CC[C@H](OC(=O)CC6(CC(=O)O)CCCC6)C(C)(C)[C@@H]5CC[C@]43C)[C@@H]12`, the EC50 in data set [1] was 76.9 nM. Moreover, the pTI in data set [2] is given as -2.427.
On to `CCC(C)(CC(=O)O)CC(=O)OC[C@]12CC[C@@H](C(C)C)[C@@H]1[C@H]1CC[C@@H]3[C@@]4(C)CC[C@H](OC(=O)CC(C)(CC)CC(=O)O)C(C)(C)[C@@H]4CC[C@@]3(C)[C@]1(C)CC2` (stereo partly drawn), for which the EC50 in data set [1] was 75 nM. The pTI in data set [2] was -2.395.
For `C=C(C)[C@@H]1CC[C@]2(COC(=O)CC(C)(C)CC(=O)O)CC[C@]3(C)[C@H](CC[C@@H]4[C@@]5(C)CC[C@H](O)C(C)(C)[C@@H]5CC[C@]43C)[C@@H]12` the same measures were 3600 nM and -0.892.
For `CC(C)[C@@H]1CC[C@]2(C(=O)O)CC[C@]3(C)[C@H](CC[C@@H]4[C@@]5(C)CC[C@H](OC(=O)COCC(=O)O)C(C)(C)[C@@H]5CC[C@]43C)[C@@H]12` the same measures were 5.6 nM and -3.37.
In the case of `C=C(C)[C@@H]1CC[C@]2(C(=O)O)CC[C@]3(C)[C@H](CC[C@@H]4[C@@]5(C)CC[C@H](OC(=O)CC(C)(C)CC(=O)O)C(C)(C)[C@@H]5CC[C@]43C)[C@@H]12`, the EC50 in data set [1] was 2.3 nM.
For `C=C(C)[C@@H]1CC[C@]2(COC(=O)CC(C)(CC)CC(=O)O)CC[C@]3(C)[C@H](CC[C@@H]4[C@@]5(C)CC[C@H](OC(=O)CC(C)(CC)CC(=O)O)C(C)(C)[C@@H]5CC[C@]43C)[C@@H]12` (stereo partly drawn), the EC50 in data set [1] is 5.3 nM. In addition, in data set [2], the pTI is listed as -3.541.
The matching figures for `C=C(C)[C@@H]1CC[C@]2(COC(=O)CC(C)(C)CC(=O)O)CC[C@]3(C)[C@H](CC[C@@H]4[C@@]5(C)CC[C@H](OC(=O)CC(C)(C)CC(=O)O)C(C)(C)[C@@H]5CC[C@]43C)[C@@H]12`: 0.659 nM and -4.333.
For `CC(C)[C@@H]1CC[C@]2(COC(=O)CC3(CC(=O)O)CCCC3)CC[C@]3(C)[C@H](CC[C@@H]4[C@@]5(C)CC[C@H](OC(=O)CC6(CC(=O)O)CCCC6)C(C)(C)[C@@H]5CC[C@]43C)[C@@H]12`, the EC50 in data set [1] is 579 nM. Besides, the pTI in data set [2] is given as -1.568.
With `C=C(COC(C)=O)[C@@H]1CC[C@]2(COC(C)=O)CC[C@]3(C)[C@H](CC[C@@H]4[C@@]5(C)CC[C@H](OC(C)=O)C(C)(C)[C@@H]5CC[C@]43C)[C@@H]12`, in data set [1], the EC50 was 10200 nM. For the same molecule, the pTI in data set [2] is -0.398.
Turning to `C=C(C)[C@@H]1CC[C@]2(CNC(=O)CC(C)(C)CC(=O)O)CC[C@]3(C)[C@H](CC[C@@H]4[C@@]5(C)CC[C@H](NC(=O)CC(C)(C)CC(=O)O)C(C)(C)[C@@H]5CC[C@]43C)[C@@H]12`, in data set [1], the EC50 is 570 nM. The pTI in data set [2] is on record as -1.564.
On to `C=C(C)[C@@H]1CC[C@]2(COC(=O)CC3(CC(=O)O)CCCC3)CC[C@]3(C)[C@H](CC[C@@H]4[C@@]5(C)CCC(=O)C(C)(C)[C@@H]5CC[C@]43C)[C@@H]12`, for which, in data set [1], the EC50 was 4300 nM. Further, the pTI in data set [2] is on record as -0.477.
The matching figures for `C=C(C)[C@@H]1CC[C@]2(C(=O)NCCCCCCCC(=O)N[C@@H](CC(C)C)[C@@H](O)CC(=O)O)CC[C@]3(C)[C@H](CC[C@@H]4[C@@]5(C)CC[C@H](O)C(C)(C)[C@@H]5CC[C@]43C)[C@@H]12`: 330 nM and -1.544.
Take `C=C(C)[C@@H]1CC[C@]2(C(=O)O)CC[C@]3(C)[C@H](CC[C@@H]4[C@@]5(C)CC[C@H](O)C(C)(C)[C@@H]5CC[C@]43C)[C@@H]12` (stereo in doubt; 1) [BETULINIC ACID]: the pTI in data set [2] was -0.969.
As for `C=C(C)[C@@H]1CC[C@]2(CO)CC[C@]3(C)[C@H](CC[C@@H]4[C@@]5(C)CC[C@H](O)C(C)(C)[C@@H]5CC[C@]43C)[C@@H]12` [BETULIN], in data set [2] (H9 cells, read-out: Ratio IC50/EC50), the selectivity ratio came out at 1.9. For the same molecule, the pTI in data set [2] is -0.279.
